Test results reported in patent publication EP1285920A1, “C10 Ester sustituted taxanes as antitumor agents” (Florida State University Research Foundation, Inc., priority 2001, dated 2003).
Read-outs that look alike come from different tables or passages of the source.

Tests used:
HCT116 = test: In Vitro cytotoxicity measured by the cell colony formation assay; format: cell-based, human; conditions: Homo sapiens, HCT-116; read-out: IN VITRO ID 50 HCT116
Method in brief: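 Four hundred cells per dish in McCoy's 5a medium with 10% FBS were allowed to attach for 5 h at 37 °C. They were then exposed to compound for 72 h at 37 °C, added as a 10× stock made fresh in medium. After HBSS rinsing and refeeding, colonies were counted after 7 days.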

SK-MES carcinoma = test: In vivo evaluation against SK-MES human lung carcinoma xenograft (i.v., Example 11); conditions: SK-MES
Protocol: Antitumor compounds were formulated for an i.v. dosing regime prepared in the following vehicle: 10% ethanol, 10% Cremophor and 80% isotonic saline.
Vehicle control animals were dosed twice intravenously with half the total volume being given separated by one hour. The study was terminated on Day 60.
A complete response is obtained if the tumor is not palpable at the end of the study.
A tumor scoring system was designed to provide a more quantitative ranking of efficacy (therapeutic potential) among the antitumor agents evaluated against the different human solid tumor xenografts. Each mouse in a study was given a score of from 1 to 10 at the end of the study. The scores can be summarized as follows:
The individual score for each mouse was averaged into a mean score for each treatment group. […]

HCT116 carcinoma = system: HCT116 carcinoma
Method in brief: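 Mice bearing HCT116 tumours received a single i.v. maximum tolerated dose per compound, formulated in 5% ethanol, 5% Cremophor, 90% isotonic saline. Study ended on Day 60; complete response meant no palpable tumour at study end.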

MX-1 carcinoma = system: MX-1 carcinoma
Method in brief: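 Mice dosed with a single i.v. bolus (qd x 1) at each compound's MTD, formulated in 5% ethanol, 5% Cremophor, 90% isotonic saline. Study ended Day 60; complete response = tumor not palpable at study end.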

DU145 prostate carcinoma = system: DU145 prostate carcinoma
Source text: Dosing was initiated on Day 1. […] Treatment groups are detailed in Table 5.

[1] = HCT116, Taxol i.p. 18 mg/kg qd x 5 (Group 3)
[2] = Taxol 18 mg/kg i.p. qd x 5, 5 mice
[3] = number of 5 mice, Taxol 18 mg/kg i.p. qd x 5
[4] = MX-1, i.v. qd x 1, six mice per group

## CC(=O)O[C@H]1C(=O)[C@@]2(C)[C@H]([C@H](OC(=O)c3ccccc3)[C@]3(O)C[C@H](OC(=O)[C@H](O)[C@@H](NC(=O)c4ccccc4)c4ccccc4)C(C)=C1C3(C)C)[C@]1(OC(C)=O)CO[C@@H]1C[C@@H]2O [Taxol, paclitaxel, reference compound]
HCT116
  IC50: 2.1 nM
SK-MES carcinoma; Taxol 36 mg/kg i.v.
  survival extension compared to vehicle controls: 30%
SK-MES carcinoma; i.v. MTD in two half doses one hour apart, qd x 1, Taxol 36 mg/kg, 0503 72.1 mg/kg, days until tumor 1.5 g, ended Day 60
  MDS (n): 16 ± 2.0 (6) days
SK-MES carcinoma; i.v. split dose qd x 1, six mice per group
  Toxic Deaths: 0
SK-MES carcinoma; i.v. split dose qd x 1, six mice per group, Day 60
  Survivors: 0
SK-MES carcinoma; i.v. split dose qd x 1, tumor below 1.5 g at termination
  Stable Disease: 0
SK-MES carcinoma; i.v. split dose qd x 1, tumor not palpable at end of study
  Complete Response: 0
SK-MES carcinoma; i.v. split dose qd x 1, tumor smaller than on Day 1
  Partial Response: 0
SK-MES carcinoma; tumor score 1 to 10 per mouse, group mean
  Mean Score: 1.3 ± 0.3
HCT116 carcinoma; HCT116, Taxol 36 mg/kg i.v. qd x 1
  increase in survival compared to control Group 1: 24%
HCT116 carcinoma; [1]
  Partial Response: one
  survival extension compared to Group 1 control mice: 84%
HCT116 carcinoma; HCT116, i.v. qd x 1 (compounds single MTD; Taxol 36 mg/kg split), days until tumor 2.0 g, ended Day 60
  MDS: 27.5 days
HCT116 carcinoma; HCT116, i.v. qd x 1, five mice per group
  Stable Disease: one
HCT116 carcinoma; [2]
  Mean Score: 3.6 ± 1.4
HCT116 carcinoma; i.v. qd x 1 at MTD, 5 mice/group, Day 60, doses as in E3
  Mean Score: 2.2 ± 0.5
HCT116 carcinoma; mean days of survival until tumor reached 2.0 g, i.v. qd x 1 at MTD, 5 mice/group, study ended Day 60, mg/kg: Taxol 36 (split doses), 0503 72.6, 0536 49, 0663 159, 0670 123, 0687 159, 0706 108, 0908 159, 0947 76.9, 0951 72.6, 0983 72.6, 0999 49, 1003 49, 1011 108
  MDS (n): 27.5 ± 1.7 (4) days
HCT116 carcinoma; mouse, in vivo, iv
  tolerability: well-tolerated
HCT116 carcinoma; number of 5 mice, tumor did not reach 2.0 g by end of study, i.v. qd x 1 at MTD, Day 60, doses as in E3
  Stable Disease: 1
HCT116 carcinoma; number of 5 mice, tumor not palpable at end of study, i.v. qd x 1 at MTD, Day 60, doses as in E3
  Complete Response: 0
HCT116 carcinoma; number of 5 mice, tumor smaller than on Day 1, i.v. qd x 1 at MTD, Day 60, doses as in E3
  Partial Response: 0
HCT116 carcinoma; [3]
  Complete Response: 0
  Partial Response: 1
  Stable Disease: 0
  Survivors: 1
  Toxic Deaths: 0
HCT116 carcinoma; number of 5 mice, i.v. qd x 1 at MTD, Day 60, doses as in E3
  Survivors: 1
HCT116 carcinoma; number of 5 mice, i.v. qd x 1 at MTD, Day 60, mg/kg: Taxol 36 (split doses), 0503 72.6, 0536 49, 0663 159, 0670 123, 0687 159, 0706 108, 0908 159, 0947 76.9, 0951 72.6, 0983 72.6, 0999 49, 1003 49, 1011 108
  Toxic Deaths: 0
MX-1 carcinoma; MX-1, Taxol 36 mg/kg i.v. qd x 1, one animal, calculated, tumor 2.0 g
  MDS: 27.8 days
MX-1 carcinoma; MX-1, i.v. qd x 1, Day 60
  antitumor activity / tumor response: moderate anti-tumor activity
MX-1 carcinoma; [4]
  Stable Disease: One
  Toxic Deaths: four
MX-1 carcinoma; i.v. qd x 1 at MTD, 6 mice/group, Day 60, doses as in E17
  Mean Score: 1.2 ± 0.8
MX-1 carcinoma; mouse, in vivo, iv
  tolerability: not well tolerated
MX-1 carcinoma; number of 6 mice, tumor did not reach 2.0 g by end of study, i.v. qd x 1 at MTD, Day 60, doses as in E17
  Stable Disease: 1
MX-1 carcinoma; number of 6 mice, tumor not palpable at end of study, i.v. qd x 1 at MTD, Day 60, doses as in E17
  Complete Response: 0
MX-1 carcinoma; number of 6 mice, tumor smaller than on Day 1, i.v. qd x 1 at MTD, Day 60, doses as in E17
  Partial Response: 0
MX-1 carcinoma; number of 6 mice, i.v. qd x 1 at MTD, Day 60, doses as in E17
  Survivors: 1
MX-1 carcinoma; number of 6 mice, i.v. qd x 1 at MTD, Day 60, mg/kg: Taxol 36 (split dose), 0503 72.6, 0536 49, 0663 159, 0670 123, 0687 159, 0706 108, 0908 159, 0947 76.9, 0951 72.6, 0983 67.4, 0999 49, 1003 49, 1011 108
  Toxic Deaths: 0
DU145 prostate carcinoma; DU145, Taxol 24 mg/kg i.v. qd x 1
  increase in survival compared to Group 1 controls: 9%
DU145 prostate carcinoma; DU145, Taxol i.p. 18 mg/kg qd x 5 (Group 3)
  toxicity: highly toxic
DU145 prostate carcinoma; DU145, Taxol i.p. 18 mg/kg qd x 5 (Group 3), five mice
  mice died of drug-related side effects: five
DU145 prostate carcinoma; DU145, i.v. qd x 1 (compounds estimated MTD; Taxol 24 mg/kg split), days until tumor 1.5 g, ended Day 91
  MDS: 37.4 days
DU145 prostate carcinoma; DU145, i.v. qd x 1, five mice per group
  toxic deaths / toxic lethalities: One
DU145 prostate carcinoma; [2]
  Mean Score: 0 ± 0
DU145 prostate carcinoma; i.v. qd x 1 at estimated MTD (Taxol 24 mg/kg split), 5 mice/group, Day 91
  Mean Score: 2 ± 1
DU145 prostate carcinoma; mean days of survival until tumor reached 1.5 g, i.v. qd x 1 at estimated MTD (Taxol 24 mg/kg as two split doses), 5 mice/group, study ended Day 91
  MDS (n): 37.4 ± 8.9 (3) days
DU145 prostate carcinoma; number of 5 mice, tumor did not reach 1.5 g by end of study, i.v. qd x 1 at estimated MTD (Taxol 24 mg/kg split), Day 91
  Stable Disease: 1
DU145 prostate carcinoma; [3]
  Complete Response: 0
